We go through five molecules from patent US12102643B2, “Aqueous pharmaceutical formulation of hydrocortisone sodium phosphate and monothioglycerol” (ANTARES PHARMA, INC., priority 2022, dated 2024).

The nature of data set [1]: Room temperature stability of crystalline as compared to amorphous drug substance (water content, Karl Fischer). It is filed as physicochemical. Conditions: for Assay / Total Impurities: Room temperature. From the text:
The Drug Substance (DS) Hydrocortisone Sodium Phosphate (HSP) is a sodium salt of phosphate ester of hydrocortisone. The high-water solubility of HSP enables the development of aqueous injectable solutions. The DS meets the requirements of USP monograph, “Hydrocortisone sodium phosphate, USP,” except for loss on drying (LOD) specification, instead the Karl Fischer method is used to test water content which meets the British Pharmacopoeia specification. This is because the crystalline form obtained through the manufacturing process is a crystalline hydrate. To meet the USP LOD specification of NMT 5%, the manufacturing process would need to involve a lyophilization step which leads to the formation of an amorphous form of HSP. […] The water content test method utilizes the British Pharmacopoiea (BP) HSP monograph semi-micro water content method instead of the less specific USP HSP monograph water content Loss on Drying method. […]

Data set [2] is described as follows: Genotoxicity assessment (ICH M7).
Data set [3] in a line: Stability study of HCP prototype formulations in PFS at 25° C. and 40° C. (appearance, pH, assay and related substances by stability indicating HPLC). Conditions: accelerated storage 40° C., effect of pH.
Data set [4] is described as follows: Forced degradation of hydrocortisone sodium phosphate API under stress conditions (0.1 N HCl, 0.1 N NaOH, dry heat). It is filed as physicochemical. The conditions noted are these: 3 stress conditions: 0.1 N HCl, qualitative. The protocol: To develop this method, Hydrocortisone sodium phosphate API was kept under stress conditions. These stress conditions included treatment with 0.1 N HCl, 0.1 N NaOH and dry heat. This was performed to investigate the nature of API and its compatibility with the stress conditions. It also helped generate degradation products to assess the specificity of the HPLC method under development. Information on degradation products and the conditions used to generate them was used to optimize the method for better resolution of such degradation products on chromatogram. FIGS. 3A-3C show chromatograms of HCP under stress conditions.
The proportions in which the degradants formed depended on the stress condition. Stress studies performed on the API were done for qualitative purpose only.

For the molecule `C[C@]12CCC(=O)C=C1CC[C@@H]1[C@@H]2[C@@H](O)C[C@@]2(C)[C@H]1CC[C@]2(O)C(=O)COP(=O)([O-])[O-].[Na+].[Na+]`, the Assay in data set [1] (Time 0) came to 97.8%; in data set [1] (Time 3 mo.), 99.0%; in data set [1] (Time 6 mo.) it was 96.5%. Further, the “Total Impurities” value is listed as 0.20% in data set [1] (Time 0), 1.1% in data set [1] (Time 3 mo.) and 1.5% in data set [1] (Time 6 mo.).

For `C[C@]12CCC(=O)C=C1CC[C@@H]1[C@@H]2[C@@H](O)C[C@@]2(C)[C@H]1CC[C@]2(O)C(=O)COP(=O)(O)O` [Hydrocortisone Sodium Phosphate], the Assay in data set [1] (Time 0) was found to be 100.9%; in data set [1] (Time 3 mo.), 101.4%; in data set [1] (Time 6 mo.) it was 99.5%. Also, the results for the “Total Impurities” value in data set [1] (Time 0), in data set [1] (Time 3 mo.) and in data set [1] (Time 6 mo.) were 0.00%, 0.06% and 0.00%, respectively.

In the case of `C[C@]12CCC(=O)C=C1CC[C@@H]1[C@@H]2[C@@H](O)C[C@@]2(C)[C@H]1CC[C@]2(O)C(=O)COP(=O)(O)O` [Hydrocortisone sodium phosphate], in data set [2], the genotoxicity assessment entry was “not a genotoxic product”. In data set [3], the susceptibility to hydrolysis result is listed as “prone to general acid-catalyzed hydrolysis at pH<7.5”.

Regarding `C[C@]12CCC(=O)C=C1CC[C@@H]1[C@@H]2[C@@H](O)C[C@@]2(C)[C@H]1CC[C@]2(O)C(=O)COP(=O)(O)O` [hydrocortisone sodium phosphate], in data set [1] (room temperature), the hygroscopicity entry was “highly hygroscopic” and the “stability compared to crystalline form” value was “not stable as compared to crystalline form”.

Hydrocortisone sodium phosphate: in data set [4], the forced degradation outcome is on record as “formation of Hydrocortisone, other common degradants”.
